These results are taken from ChEMBL document CHEMBL6114969, “Ultra-short lipopeptides containing d-amino acid exhibiting excellent stability and antibacterial activity against gram-positive bacteria” (Eur J Med Chem, 2025).

For orientation: MIC means the least concentration at which growth counts as inhibited. Low readings indicate inhibition by little substance, high ones a need for much substance.

Experiment [1] has as its system Staphylococcus aureus. The experiment can be described thus: Antibacterial activity against methicillin-resistant Staphylococcus aureus ATCC 33591 infected in Balb/c mouse model of acute systemic infection at 10 mg/kg, ip measured after 5 days. Format: functional, organism-based. Particulars: time 5.0 day.
Experiment [2] deals with Staphylococcus aureus. The experiment can be described thus: Antibacterial activity against methicillin-resistant Staphylococcus aureus ATCC 33591 infected in Balb/c mouse model of pneumonia infection assessed as reduction in bacterial load in lung at 10 mg/kg, ip administered thrice at 4, 8 and 12 hrs post-infection measured after 24 hrs post-infection. Format: functional, organism-based. Particulars: time 20.0 hrs.

For experiment [3], the system named is Staphylococcus aureus. The experiment in a line: Antibacterial activity against methicillin-resistant Staphylococcus aureus ATCC 33591 infected in Balb/c mouse model of pneumonia infection assessed as reduction in inflammatory cell infiltration in lung at 10 mg/kg, ip administered thrice at 4, 8 and 12 hrs post-infection measured after 24 hrs post-infection by H and E staining based analysis. Format: functional, organism-based. Particulars: time 20.0 hrs.

In experiment [4] the test system is Staphylococcus aureus. The experiment in a line: Antibacterial activity against methicillin-resistant Staphylococcus aureus ATCC 33591 infected in Balb/c mouse model of pneumonia infection assessed as reduction in bleeding in lung at 10 mg/kg, ip administered thrice at 4, 8 and 12 hrs post-infection measured after 24 hrs post-infection by H and E staining based analysis. Format: functional, organism-based. Particulars: time 20.0 hrs.

Experiment [5] deals with Staphylococcus aureus. The experiment in a line: Antibacterial activity against methicillin-resistant Staphylococcus aureus ATCC 33591 infected in Balb/c mouse model of pneumonia infection assessed as reduction in alveolar contraction in lung at 10 mg/kg, ip administered thrice at 4, 8 and 12 hrs post-infection measured after 24 hrs post-infection by H and E staining based analysis. It is filed as functional, organism-based.

The test system of experiment [6] is Staphylococcus aureus. The experiment can be described thus: Antibacterial activity against methicillin-resistant Staphylococcus aureus ATCC 33591 infected in Balb/c mouse model of pneumonia infection assessed as reduction in TNF-alpha activity in lung at 10 mg/kg, ip administered thrice at 4, 8 and 12 hrs post-infection measured after 24 hrs post-infection by IHC analysis. It is filed as functional, organism-based. Particulars: time 20.0 hrs.

Experiment [7] relates to Staphylococcus aureus. The experiment can be described thus: Antibacterial activity against methicillin-resistant Staphylococcus aureus ATCC 33591 infected in Balb/c mouse model of pneumonia infection assessed as reduction in IL-1beta activity in lung at 10 mg/kg, ip administered thrice at 4, 8 and 12 hrs post-infection measured after 24 hrs post-infection by IHC analysis. Format: functional, organism-based. Particulars: time 20.0 hrs.

Experiment [8] relates to Staphylococcus aureus. The experiment in a line: Antibacterial activity against methicillin-resistant Staphylococcus aureus ATCC 33591 infected in Balb/c mouse model of skin wound infection assessed as reduction in bacterial load in skin at 10 mg/kg, ip administered thrice at 1, 24 and 48 hrs post-infection measured after 72 hrs post-infection. Format: functional, organism-based. Particulars: time 71.0 hrs.

Experiment [9] has as its system Staphylococcus aureus. The experiment in a line: Antibacterial activity against methicillin-resistant Staphylococcus aureus ATCC 33591 infected in Balb/c mouse model of skin wound infection assessed as reduction in inflammatory cell infiltration in skin at 10 mg/kg, ip administered thrice at 1, 24 and 48 hrs post-infection measured after 14 days by H and E staining based analysis. Format: functional, organism-based. Particulars: time 14.0 day.

Experiment [10] has as its system Staphylococcus aureus. The experiment can be described thus: Antibacterial activity against methicillin-resistant Staphylococcus aureus ATCC 33591 infected in Balb/c mouse model of skin wound infection assessed as reduction in TNF-alpha activity in skin at 10 mg/kg, ip administered thrice at 1, 24 and 48 hrs post-infection measured after 14 days by IHC analysis. Particulars: time 14.0 day. It is filed as functional, organism-based.

Experiment [11] concerns Staphylococcus aureus. The experiment can be described thus: Antibacterial activity against methicillin-resistant Staphylococcus aureus ATCC 33591 infected in Balb/c mouse model of skin wound infection assessed as reduction in IL-1beta activity in skin at 10 mg/kg, ip administered thrice at 1, 24 and 48 hrs post-infection measured after 14 days by IHC analysis. Particulars: time 14.0 day. Format: functional, organism-based.

Experiment [12] deals with Staphylococcus aureus. The experiment can be described thus: Antibacterial activity against methicillin-resistant Staphylococcus aureus ATCC 33591 infected in Balb/c mouse model of skin wound infection assessed as reduction in keratosis in wound surface at 10 mg/kg, ip administered thrice at 1, 24 and 48 hrs post-infection measured after 14 days by IHC analysis. Format: functional, organism-based. Particulars: time 14.0 day.

Experiment [13] relates to Staphylococcus aureus. The experiment in a line: Antibacterial activity against Staphylococcus aureus ATCC 25923 incubated for 18 to 24 hrs by broth microdilution method. It is filed as functional. Particulars: time 18-24 hrs. Background: Broth dilution looks for growth in wells or tubes with falling amounts of substance.
Experiment [14] concerns Staphylococcus aureus. The experiment can be described thus: Antibacterial activity against Staphylococcus aureus ATCC 29213 incubated for 18 to 24 hrs by broth microdilution method. It is filed as functional. Particulars: time 18-24 hrs.
Experiment [15] has as its system Staphylococcus aureus. The experiment in a line: Antibacterial activity against methicillin-resistant Staphylococcus aureus ATCC 33591 incubated for 18 to 24 hrs by broth microdilution method. Format: functional. Particulars: time 18-24 hrs.
The test system of experiment [16] is Staphylococcus epidermidis. The experiment in a line: Antibacterial activity against Staphylococcus epidermidis ATCC 12228 incubated for 18 to 24 hrs by broth microdilution method. It is filed as functional. Particulars: time 18-24 hrs.
Another experiment concerns Enterococcus faecalis. The experiment in a line: Antibacterial activity against Enterococcus faecalis ATCC 29212 incubated for 18 to 24 hrs by broth microdilution method. It is filed as functional. Particulars: time 18-24 hrs.
The subject of experiment [17] is Staphylococcus aureus. The experiment in a line: Antibacterial activity against drug-resistant Staphylococcus aureus ATCC 25923 incubated for 18 to 24 hrs. It is filed as functional. Particulars: time 18-24 hrs.
Experiment [18] relates to Staphylococcus aureus. The experiment in a line: Antibacterial activity against ciprofloxacin-resistant Staphylococcus aureus ATCC 25923 incubated for 18 to 24 hrs. It is filed as functional. Particulars: time 18-24 hrs.
Experiment [19] deals with Staphylococcus aureus. The experiment in a line: Antibacterial activity against polymyxin B-resistant Staphylococcus aureus ATCC 25923 incubated for 18 to 24 hrs. It is filed as functional. Particulars: time 18-24 hrs.
Experiment [20] concerns Staphylococcus aureus. The experiment can be described thus: Antibacterial activity against gentamicin-resistant Staphylococcus aureus ATCC 25923 incubated for 18 to 24 hrs. It is filed as functional. Particulars: time 18-24 hrs.
The test system of experiment [21] is Staphylococcus aureus. The experiment in a line: Antibacterial activity against drug-resistant methicillin-resistant Staphylococcus aureus ATCC 33591 incubated for 18 to 24 hrs. It is filed as functional. Particulars: time 18-24 hrs.
Experiment [22] has as its system Staphylococcus aureus. The experiment can be described thus: Antibacterial activity against ciprofloxacin-resistant methicillin-resistant Staphylococcus aureus ATCC 33591 incubated for 18 to 24 hrs. It is filed as functional. Particulars: time 18-24 hrs.
Experiment [23] has as its system Staphylococcus aureus. The experiment can be described thus: Antibacterial activity against polymyxin B-resistant methicillin-resistant Staphylococcus aureus ATCC 33591 incubated for 18 to 24 hrs. Particulars: time 18-24 hrs. Format: functional.
Experiment [24] has as its system Staphylococcus aureus. The experiment in a line: Antibacterial activity against gentamicin-resistant methicillin-resistant Staphylococcus aureus ATCC 33591 incubated for 18 to 24 hrs. Format: functional. Particulars: time 18-24 hrs.
Experiment [25] deals with Staphylococcus aureus. The experiment in a line: Antibacterial activity against methicillin-resistant Staphylococcus aureus ATCC 33591 infected in Balb/c mouse model of skin wound infection assessed as crusted back wound at 10 mg/kg, ip administered thrice at 1, 24 and 48 hrs post-infection measured after 9 days relative to control. Particulars: time 9 day. Format: functional.

Experiment [26] has as its system Staphylococcus aureus. The experiment in a line: Antibacterial activity against methicillin-resistant Staphylococcus aureus ATCC 33591 infected in Balb/c mouse model of skin wound infection assessed as wound heal at 10 mg/kg, ip administered thrice at 1, 24 and 48 hrs post-infection measured after 14 days relative to control. It is filed as functional. Particulars: time 14 day.

The source made the active and inactive calls. The calls are words filed in the database; no cut-off is given here. Where a SMILES comes first, the peptide text is derived from it. Bridges are numbered along the chain shown (N, C = ends). [ ]: non-standard residue; d: D form. The star is where a group is joined. X1 = CC[C@H](C)CCCCC(=O)*; dDab = NCC[C@@H](N)C(=O)O; Dab = NCC[C@H](N)C(=O)O

Turning to `CC(C)CCCCC(=O)N[C@@H](CCN)C(=O)N[C@H](C(=O)N[C@@H](CCN)C(=O)N[C@H]1CCNC(=O)[C@H]([C@@H](C)O)NC(=O)[C@H](CCN)NC(=O)[C@H](CCN)NC(=O)[C@H](CC(C)C)NC(=O)[C@@H](Cc2ccccc2)NC(=O)[C@@H](CCN)NC1=O)[C@@H](C)O.CC[C@H](C)CCCCC(=O)N[C@@H](CCN)C(=O)N[C@H](C(=O)N[C@@H](CCN)C(=O)N[C@H]1CCNC(=O)[C@H]([C@@H](C)O)NC(=O)[C@H](CCN)NC(=O)[C@H](CCN)NC(=O)[C@H](CC(C)C)NC(=O)[C@@H](Cc2ccccc2)NC(=O)[C@@H](CCN)NC1=O)[C@@H](C)O` (X1-[Dab]T[Dab][Dab][dDab][dF]L[Dab][Dab]T; lactam 4-C), the result in the experiment with Staphylococcus aureus [1], in the experiment with Staphylococcus aureus [2], in the experiment on Staphylococcus aureus [3], in the experiment on Staphylococcus aureus [4], in the experiment with Staphylococcus aureus [6] and in the experiment on Staphylococcus aureus [7] was Active. For the same compound, the result in the experiment on Staphylococcus aureus [8], in the experiment with Staphylococcus aureus [9], in the experiment on Staphylococcus aureus [10], in the experiment with Staphylococcus aureus [11] and in the experiment with Staphylococcus aureus [12] was Active. The result in the experiment with Staphylococcus aureus [5] was inactive.

Take `CC(C)CCCCC(=O)N[C@@H](CCN)C(=O)N[C@H](C(=O)N[C@@H](CCN)C(=O)N[C@H]1CCNC(=O)[C@H]([C@@H](C)O)NC(=O)[C@H](CCN)NC(=O)[C@H](CCN)NC(=O)[C@H](CC(C)C)NC(=O)[C@@H](Cc2ccccc2)NC(=O)[C@H](CCN)NC1=O)[C@@H](C)O.CC[C@H](C)CCCCC(=O)N[C@@H](CCN)C(=O)N[C@H](C(=O)N[C@@H](CCN)C(=O)N[C@H]1CCNC(=O)[C@H]([C@@H](C)O)NC(=O)[C@H](CCN)NC(=O)[C@H](CCN)NC(=O)[C@H](CC(C)C)NC(=O)[C@@H](Cc2ccccc2)NC(=O)[C@H](CCN)NC1=O)[C@@H](C)O` (X1-[Dab]T[Dab][Dab][Dab][dF]L[Dab][Dab]T; lactam 4-C): the MIC was 4 µM in the experiment with Staphylococcus aureus [13]; 4 µM in the experiment with Staphylococcus aureus [14]; 16 µM in the experiment on Staphylococcus aureus [15]; 2 µM in experiment [16]; 128 µM in the experiment with Enterococcus faecalis; over 128 µM in the experiment with Staphylococcus aureus [17]. Besides, the MIC in the experiment on Staphylococcus aureus [18] was 128 µM; against Staphylococcus aureus [19], 512 µM; in the experiment with Staphylococcus aureus [20], over 128 µM; in the experiment on Staphylococcus aureus [21] it was 128 µM; in the experiment with Staphylococcus aureus [22], 4 µM; with Staphylococcus aureus [23], 2050 µM. The same compound yielded an MIC against Staphylococcus aureus [24] of 128 µM. In addition, the Activity in the experiment on Staphylococcus aureus [25] and in the experiment on Staphylococcus aureus [26] was 100% in each case.
